Assay results from ChEMBL document CHEMBL4257548, “Phenothiazine antioxidants increase mitochondrial biogenesis and frataxin levels in Friedreich's ataxia cells” (Medchemcomm, 2018).
Calls of active or inactive are those of the source. The calls are words filed in the database; no cut-off is given here.

Assays:
GM15850 [1] = test: Inhibition of ATP production in human GM15850 cells after 24 hrs by Vialight reagent based luminescence assay; format: functional, cell-based
GM16216 [2] = test: Inhibition of ATP production in human GM16216 cells after 24 hrs by Vialight reagent based luminescence assay; format: functional, cell-based
GM15850 [3] = test: Cytotoxicity against human GM15850 cells at 2.5 uM after 24 to 48 hrs by live/dead staining-based flow cytometry; format: cell-based; conditions: gm15850, 2.5 µM
GM15850 [4] = test: Effect on mitochondrial membrane potential in human GM15850 cells assessed as loss of mitochondrial membrane potential at 0.25 uM after 16 hrs by JC1 staining based flow cytometry (reference value: 13%); format: functional
GM15850 [5] = test: Effect on ATP production in human GM15850 cells at 0.1 uM after 24 hrs by Vialight reagent based luminescence assay; format: functional, cell-based
GM15850 [6] = test: Cytoprotection against DEM-induced toxicity in human GM15850 cells assessed as increase in cell viability at 0.5 to 2.5 uM pretreated for 16 hrs followed by DEM addition and measured after 5 hrs by live/dead staining based flow cytometry; format: functional
GM16216 [7] = test: Effect on mitochondrial membrane potential in human GM16216 cells assessed as loss of mitochondrial membrane potential at 0.25 uM after 16 hrs by JC1 staining based flow cytometry (reference value: 13%); format: functional
GM16216 [8] = test: Effect on mitochondrial membrane potential in human GM16216 cells assessed as intact mitochondrial membrane at 0.25 uM after 16 hrs by JC1 staining based flow cytometry (reference value: 87%); format: functional
GM16216 [9] = test: Effect on ATP production in human GM16216 cells at 0.1 uM after 24 hrs by Vialight reagent based luminescence assay; format: functional, cell-based
GM15850 [10] = test: Effect on mitochondrial membrane potential in human GM15850 cells assessed as intact mitochondrial membrane at 0.25 uM after 16 hrs by JC1 staining based flow cytometry (reference value: 87%); format: functional
GM16216 [11] = test: Cytoprotection against DEM-induced toxicity in human GM16216 cells assessed as increase in cell viability at 0.5 to 2.5 uM pretreated for 16 hrs followed by DEM addition and measured after 5 hrs by live/dead staining based flow cytometry; format: functional
GM16216 [12] = test: Cytotoxicity against human GM16216 cells at 2.5 uM after 24 to 48 hrs by live/dead staining-based flow cytometry; format: cell-based; conditions: gm16216, 2.5 µM
GM16216 [13] = test: Induction of mitochondrial biogenesis in human GM16216 cells assessed as ratio of COX1 to SDH-A protein levels at 50 after 48 hrs by ELISA relative to control; format: functional
GM16216 [14] = test: Effect on frataxin expression in human GM16216 cells at 50 nM after 48 hrs by ELISA relative to control; format: functional
GM15850 [15] = test: Effect on frataxin expression in human GM15850 cells at 50 nM after 48 hrs by ELISA relative to control; format: functional
GM15850 [16] = test: Induction of mitochondrial biogenesis in human GM15850 cells assessed as ratio of COX1 to SDH-A protein levels at 50 after 48 hrs by ELISA relative to control; format: functional
GM16216 [17] = test: Effect on frataxin expression in human GM16216 cells at 250 nM after 24 hrs by ELISA relative to control; format: functional
GM15850 [18] = test: Effect on frataxin expression in human GM15850 cells at 250 nM after 24 hrs by ELISA relative to control; format: functional
GM15850 [19] = test: Effect on frataxin expression in human GM15850 cells at 250 nM after 48 hrs by ELISA relative to control; format: functional
GM15850 [20] = test: Restoration of total aconitase activity in human GM15850 cells at 250 nM after 5 days by colorimetric method relative to control; format: functional
GM15850 [21] = test: Induction of mitochondrial biogenesis in human GM15850 cells assessed as ratio of COX1 to SDH-A protein levels at 250 after 48 hrs by ELISA relative to control; format: functional
GM16216 [22] = test: Restoration of total aconitase activity in human GM16216 cells at 50 nM after 5 days by colorimetric method relative to control; format: functional
GM16216 [23] = test: Restoration of total aconitase activity in human GM16216 cells at 250 nM after 5 days by colorimetric method relative to control; format: functional
GM16216 [24] = test: Induction of mitochondrial biogenesis in human GM16216 cells assessed as ratio of COX1 to SDH-A protein levels at 250 after 48 hrs by ELISA relative to control; format: functional
GM16216 [25] = test: Induction of mitochondrial biogenesis in human GM16216 cells assessed as ratio of COX1 to SDH-A protein levels at 50 after 24 hrs by ELISA relative to control; format: functional
GM15850 [26] = test: Induction of mitochondrial biogenesis in human GM15850 cells assessed as ratio of COX1 to SDH-A protein levels at 50 after 24 hrs by ELISA relative to control; format: functional
GM15850 [27] = test: Effect on frataxin expression in human GM15850 cells at 50 nM after 24 hrs by ELISA relative to control; format: functional
GM15850 [28] = test: Induction of mitochondrial biogenesis in human GM15850 cells assessed as ratio of COX1 to SDH-A protein levels at 250 after 24 hrs by ELISA relative to control; format: functional
GM15850 [29] = test: Restoration of total aconitase activity in human GM15850 cells at 50 nM after 5 days by colorimetric method relative to control; format: functional
GM16216 [30] = test: Effect on frataxin expression in human GM16216 cells at 250 nM after 48 hrs by ELISA relative to control; format: functional
GM16216 [31] = test: Induction of mitochondrial biogenesis in human GM16216 cells assessed as ratio of COX1 to SDH-A protein levels at 250 after 24 hrs by ELISA relative to control; format: functional
GM16216 [32] = test: Effect on frataxin expression in human GM16216 cells at 50 nM after 24 hrs by ELISA relative to control; format: functional

Row | Compound | Activity (GM15850 [4]) [%] | Activity (GM16216 [7]) [%] | Activity (GM16216 [8]) [%] | Activity (GM15850 [10]) [%] | Activity (GM16216 [13]) [%] | Activity (GM16216 [14]) [%] | Activity (GM15850 [15]) [%] | Activity (GM15850 [16]) [%] | Activity (GM16216 [17]) [%] | Activity (GM15850 [18]) [%] | Activity (GM15850 [19]) [%] | Activity (GM15850 [20]) [%] | Activity (GM15850 [21]) [%] | Activity (GM16216 [22]) [%] | Activity (GM16216 [23]) [%] | Activity (GM16216 [24]) [%] | Activity (GM16216 [25]) [%] | Activity (GM15850 [26]) [%] | Activity (GM15850 [27]) [%] | Activity (GM15850 [28]) [%] | also measured
1 | CCCCCCCCCCCCCc1cc2nc3ccc(N(C)C)cc3sc-2cc1=[N+](C)C.[I-] | 18 | 18 | 82 | 82 |  |  |  |  |  |  |  |  |  |  |  |  |  |  |  |  | inhibition (GM15850 [1]): Dose-dependent effect; inhibition (GM16216 [2]): Dose-dependent effect; Activity (GM15850 [3]): Toxic; Activity (GM15850 [5]): inactive; Activity (GM15850 [6]): Active; Activity (GM16216 [9]): inactive; Activity (GM16216 [11]): Active; Activity (GM16216 [12]): Toxic
2 | CN(C)c1ccc2nc3ccc(N(C)C)cc3[s+]c2c1.[Cl-] [METHYLENE BLUE ANHYDROUS] | 17 | 17 | 83 | 83 |  |  |  |  |  |  |  |  |  |  |  |  |  |  |  |  | 
3 | CCCCCCCCCCCCCCCN(C)c1ccc2nc3ccc(=O)cc-3sc2c1 |  |  |  |  | 128 | 120 | 120 | 128 | 118 | 118 | 127 | 123 | 137 | 116 | 123 | 137 | 120 | 120 | 114 | 127 | Activity (GM15850 [29]): 116%; Activity (GM16216 [30]): 127%; Activity (GM16216 [31]): 127%; Activity (GM16216 [32]): 114%
4 | CCCCCCCCCCCCCCCN(CCCC)c1ccc2nc3ccc(=O)cc-3sc2c1 |  |  |  |  | 123 | 121 | 121 | 123 | 123 | 123 | 127 | 116 | 137 | 115 | 116 | 137 | 117 | 117 | 116 | 127 | Activity (GM15850 [29]): 115%; Activity (GM16216 [30]): 127%; Activity (GM16216 [31]): 127%; Activity (GM16216 [32]): 116%
